From ChEMBL document CHEMBL1146038, “Hassallidin B--second antifungal member of the Hassallidin family” (2006)
Converted amounts (≈) assume the structure as drawn. Positions of bridges follow the written chain, without caps; N, C: chain ends. Non-standard residues stand in square brackets, D forms with d. Residues, ends and D or L forms follow the SMILES beside them. *: point of attachment. X3 = CCCCCCCCCCCC(O[C@@H]1O[C@@H](C)[C@H](O)[C@@H](O)[C@H]1O)C(O)C(=O)*; X2 = OC[C@H]1O[C@@H](*)[C@@H](O)[C@@H](O)[C@@H]1O; NMeT = CN[C@H](C(=O)O)[C@@H](C)O; X1 = CCCCCCCCCCCC(O)C(O)C(=O)*; Dhb = C/C=C(\N)C(=O)O

Key:
Type in all cases: functional
Cryptococcus neoformans [1] = test: Antifungal activity against Cryptococcus neoformans CBS 6955
Candida albicans [2] = test: Antifungal activity against Candida albicans ATCC 90028
Cryptococcus neoformans [3] = test: Antifungal activity against Cryptococcus neoformans ATCC 34543
Cryptococcus neoformans [4] = test: Antifungal activity against Cryptococcus neoformans ATCC 90112
Nakaseomyces glabratus [5] = test: Antifungal activity against Candida glabrata DSM 11950
Candida tropicalis [6] = test: Antifungal activity against Candida tropicalis ATCC 90874
Pichia kudriavzevii [7] = test: Antifungal activity against Candida krusei ATCC 90878
Nakaseomyces glabratus [8] = test: Antifungal activity against Candida glabrata ATCC 90030
Candida parapsilosis [9] = test: Antifungal activity against Candida parapsilosis ATCC 90018; conditions: Lodderomyces parapsilosis
Candida tropicalis [10] = test: Antifungal activity against Candida tropicalis ATCC 750
Candida albicans [11] = test: Antifungal activity against Candida albicans SC 5314
Candida parapsilosis [12] = test: Antifungal activity against Candida parapsilosis ATCC 22019; conditions: Lodderomyces parapsilosis
Candida albicans [13] = test: Antifungal activity against Candida albicans ATCC 44374
Candida albicans [14] = test: Antifungal activity against Candida albicans ATCC 24433
Cryptococcus neoformans [15] = test: Antifungal activity against Cryptococcus neoformans DSM 6973
Pichia kudriavzevii [16] = test: Antifungal activity against Candida krusei ATCC 6258

MIC (Cryptococcus neoformans [1]) [µg/mL] | MIC (Candida albicans [2]) [µg/mL] | MIC (Cryptococcus neoformans [3]) [µg/mL] | MIC (Cryptococcus neoformans [4]) [µg/mL] | MIC (Nakaseomyces glabratus [5]) [µg/mL] | MIC (Candida tropicalis [6]) [µg/mL] | MIC (Pichia kudriavzevii [7]) [µg/mL] | MIC (Nakaseomyces glabratus [8]) [µg/mL] | MIC (Candida parapsilosis [9]) [µg/mL] | MIC (Candida tropicalis [10]) [µg/mL] | Compound | MFC (Cryptococcus neoformans [1]) [µg/mL] | MFC (Candida albicans [2]) [µg/mL] | MFC (Cryptococcus neoformans [3]) [µg/mL] | MFC (Cryptococcus neoformans [4]) [µg/mL] | MFC (Nakaseomyces glabratus [5]) [µg/mL] | MFC (Candida tropicalis [6]) [µg/mL] | MFC (Pichia kudriavzevii [7]) [µg/mL] | MFC (Nakaseomyces glabratus [8]) [µg/mL] | MFC (Candida parapsilosis [9]) [µg/mL] | MFC (Candida tropicalis [10]) [µg/mL] | further results
8 (≈ 5.23 µM) | 8 (≈ 5.23 µM) | 8 (≈ 5.23 µM) | 8 (≈ 5.23 µM) | 16 (≈ 10.5 µM) | 8 (≈ 5.23 µM) | 16 (≈ 10.5 µM) | 16 (≈ 10.5 µM) | 16 (≈ 10.5 µM) | 16 (≈ 10.5 µM) | C/C=C1\NC(=O)[C@H](Cc2ccc(O)cc2)NC(=O)[C@H]([C@@H](C)O)NC(=O)[C@@H](NC(=O)[C@@H](NC(=O)C(O)C(CCCCCCCCCCC)O[C@@H]2O[C@@H](C)[C@H](O)[C@@H](O)[C@H]2O)[C@@H](C)O)[C@@H](C)OC(=O)[C@H](CCC(N)=O)NC(=O)[C@H]([C@@H](C)O[C@@H]2O[C@H](CO)[C@@H](O)[C@H](O)[C@@H]2O)N(C)C(=O)CNC(=O)[C@H](CCC(N)=O)NC1=O (some centres undefined) (X3-TTTY[Dhb]QG[NMeT](X2)Q; ester 2-C) | 8 (≈ 5.23 µM) | 8 (≈ 5.23 µM) | 8 (≈ 5.23 µM) | 8 (≈ 5.23 µM) | 16 (≈ 10.5 µM) | 16 (≈ 10.5 µM) | 16 (≈ 10.5 µM) | 16 (≈ 10.5 µM) | > 16 | 16 (≈ 10.5 µM) | MFC (Candida albicans [11]): 8 µg/mL (≈ 5.23 µM); MIC (Candida albicans [11]): 8 µg/mL (≈ 5.23 µM); MFC (Candida parapsilosis [12]): 16 µg/mL (≈ 10.5 µM); MIC (Candida parapsilosis [12]): 8 µg/mL (≈ 5.23 µM); MFC (Candida albicans [13]): 16 µg/mL (≈ 10.5 µM); MIC (Candida albicans [13]): 8 µg/mL (≈ 5.23 µM); MFC (Candida albicans [14]): 16 µg/mL (≈ 10.5 µM); MIC (Candida albicans [14]): 16 µg/mL (≈ 10.5 µM); MFC (Cryptococcus neoformans [15]): 8 µg/mL (≈ 5.23 µM); MIC (Cryptococcus neoformans [15]): 8 µg/mL (≈ 5.23 µM); MFC (Pichia kudriavzevii [16]): 16 µg/mL (≈ 10.5 µM); MIC (Pichia kudriavzevii [16]): 8 µg/mL (≈ 5.23 µM)
4 (≈ 2.89 µM) | 4 (≈ 2.89 µM) | 4 (≈ 2.89 µM) | 4 (≈ 2.89 µM) | 8 (≈ 5.79 µM) | 8 (≈ 5.79 µM) | 8 (≈ 5.79 µM) | 8 (≈ 5.79 µM) | 8 (≈ 5.79 µM) | 4 (≈ 2.89 µM) | C/C=C1\NC(=O)[C@H](Cc2ccc(O)cc2)NC(=O)[C@H]([C@@H](C)O)NC(=O)[C@@H](NC(=O)[C@@H](NC(=O)C(O)C(O)CCCCCCCCCCC)[C@@H](C)O)[C@@H](C)OC(=O)[C@H](CCC(N)=O)NC(=O)[C@H]([C@@H](C)O[C@@H]2O[C@H](CO)[C@@H](O)[C@H](O)[C@@H]2O)N(C)C(=O)CNC(=O)[C@H](CCC(N)=O)NC1=O (some centres undefined) [HASSALLIDIN A] (X1-TTTY[Dhb]QG[NMeT](X2)Q; ester 2-C) | 8 (≈ 5.79 µM) | 4 (≈ 2.89 µM) | 8 (≈ 5.79 µM) | 8 (≈ 5.79 µM) | 8 (≈ 5.79 µM) | 8 (≈ 5.79 µM) | 8 (≈ 5.79 µM) | 8 (≈ 5.79 µM) | 16 (≈ 11.6 µM) | 4 (≈ 2.89 µM) | MFC (Candida albicans [11]): 8 µg/mL (≈ 5.79 µM); MIC (Candida albicans [11]): 4 µg/mL (≈ 2.89 µM); MFC (Candida parapsilosis [12]): 8 µg/mL (≈ 5.79 µM); MIC (Candida parapsilosis [12]): 8 µg/mL (≈ 5.79 µM); MFC (Candida albicans [13]): 4 µg/mL (≈ 2.89 µM); MIC (Candida albicans [13]): 4 µg/mL (≈ 2.89 µM); MFC (Candida albicans [14]): 4 µg/mL (≈ 2.89 µM); MIC (Candida albicans [14]): 4 µg/mL (≈ 2.89 µM); MFC (Cryptococcus neoformans [15]): 8 µg/mL (≈ 5.79 µM); MIC (Cryptococcus neoformans [15]): 4 µg/mL (≈ 2.89 µM); MFC (Pichia kudriavzevii [16]): 8 µg/mL (≈ 5.79 µM); MIC (Pichia kudriavzevii [16]): 8 µg/mL (≈ 5.79 µM)
